We go through two compounds from patent US9834548B2, “Pyridazine compounds as JAK inhibitors” (Portola Pharmaceuticals, Inc., priority 2014, dated 2017).

Read-outs that look alike come from different tables or passages of the source.

For one test, the target named is JAK3 (Homo sapiens (Human), UniProt P52333). As to the kind of experiment: Purified kinase assay (Z'-LYTE), JAK3. The class given is biochemical. The essentials:
(§1)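 Catalytic-domain recombinant kinase with Tyr6 peptide (a separate Tyr6 kit for TYK2) and ATP, 1% DMSO final, reacted 1 h at room temperature. Z′-LYTE FRET read after 1 h protease development (ex 400, em 445/520 nm). Inhibition computed from percent substrate phosphorylation versus no inhibitor; IC50 from 4-parameter logistic fit.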

Test [1] has as its system JAK2 (GM-CSF-induced pSTAT5 in TF1 cells). Description: GMCSF-induced pSTAT5 formation in TF1 (JAK2 cellular assay). The class given is cell-based. The note with it: Homo sapiens, TF-1, read-out: TF1/GM-CSF percent inhibition of STAT phosphorylation. As for the experimental part: 100 μl aliquots of TFI (2.5×10^6/ml) cells were pre-treated with various concentrations JAK inhibitors (0.04 to 5 μM, including 0.2 μM and 1 μM) for 1 hour at 37° C. Cells were then stimulated with 2 ng/ml GM-CSF for 10 minutes at 37° C. The reaction was terminated by the addition of 60 μl 16% paraformaldehyde followed by incubation for 10 minutes at room temperature. Cells were washed twice (centrifugation 5 minutes room temperature at 385×g) in PBS followed by re-suspension in −20° C. 50% methanol in PBS and storage at 4° C. overnight. The following day, cells were washed in PBS/BSA and re-suspended in the same buffer containing STAT5 Y694 specific antibody. Following incubation with antibodies, cells were washed and analyzed by flow cytometry (BD Biosciences; FACS Calibur). The gate was set on live cells in the SSC-FSC plot and 10,000 events were collected.
(§2) Percent inhibition of STAT phosphorylation in the cellular assays is provided for the compounds at the given concentrations.

Another test deals with JAK2 (Homo sapiens (Human), UniProt O60674). As to the kind of experiment: Purified kinase assay (Z'-LYTE), JAK2. The class given is biochemical. In a few lines:
as §1

A further test has as its target TYK2 (Homo sapiens (Human), UniProt P29597). As to the kind of experiment: Purified kinase assay (Z'-LYTE), TYK2. The class given is biochemical. As for the experimental part:
JAK and TYK2 tyrosine phosphorylation activity is measured using the Z′-LYTE™ Technology developed by Invitrogen Corporation (Carlsbad, Calif.). For JAK1, JAK2 and JAK3 the Z′-LYTE™ Kinase Assay Kit-Tyr6 Peptide (part number PV4122) was used. For TYK2 the Z′-LYTE™ Kinase Assay Kit-Tyr6 Peptide (part number PV3192) was used. The Z′-LYTE™ biochemical assay employs a fluorescence resonance energy transfer (FRET) coupled-enzyme format and is based on the differential sensitivity of phosphorylated and non-phosphorylated peptides to proteolytic cleavage. The assay uses a synthetic peptide substrate that is labeled with a donor fluorophore (coumarin) and an acceptor fluorophore (fluorescein) that make up a FRET pair. In the primary reaction (the Kinase Reaction), the kinase transfers the γ-phosphate of ATP to a single tyrosine residue on the substrate, while the presence of a kinase inhibitor in the primary reaction suppresses phosphorylation. In the secondary reaction (the Development Reaction), a site-specific protease (the Development Reagent) is added. The development buffer quenches the Kinase Reaction, while the protease recognizes and cleaves non-phosphorylated Z′-LYTE™ peptide substrate. Cleavage disrupts FRET between the donor and acceptor fluorophores on the non-phosphorylated substrate, while uncleaved, phosphorylated substrate maintains FRET.
To test the ability of candidate molecules to inhibit JAK tyrosine phosphorylation activity, molecules are reconstituted in 100% DMSO and serially diluted 1:10 in polypropylene v-bottom microtiter plates. The candidate molecules are then diluted 1:25 into kinase buffer and 2.5 μl transferred into duplicate wells of a 384 well low volume black microtiter assay plate (Corning, USA). The final DMSO concentration in the assay is 1%. The kinase reaction contains 2.5 μl of a candidate molecule, 5 μl of catalytic domain recombinant Kinase enzyme+Tyr peptide substrate (Invitrogen, CA) and ATP (Invitrogen, CA). The kinase reaction is allowed to proceed for 1 hour at room temperature. The protease reaction is initiated by the addition of Development Reagent (Invitrogen, CA). After 1 hour incubation at room temperature the fluorescence is measured using a FlexStation plate reader (Molecular Devices, Sunnyvale, Calif.). The reader settings used are as follows: Fluorescence mode, endpoint, top read, excitation 400 nm, emission 445 nm and 520 nm, Auto Cutoff 435 nm and 515 nm, PMT sensitivity high, 6 reads per well Inhibition of JAK activity is calculated as the percent phosphorylation of substrate in the presence of inhibitor compared to the percent phosphorylation of substrate in the absence of inhibitor. IC50's were derived using Xlfit 4.3 (IDBS, UK), 4 parameter logistic model 205: Y=(A+((B−A)/(1+((C/x)^D)))).

For test [2], the system named is JAK3/JAK1 (IL2-STAT5 in PBMC). Description: Intracellular STAT5 phosphorylation following IL2 stimulation of PBMC (JAK3/JAK1 cellular assay). The conditions noted are these: Homo sapiens, read-out: IL2-STAT5 percent inhibition of STAT phosphorylation. The class given is cell-based. On the procedure: Human whole blood was collected into lithium heparin vacutainer tubes from the antecubital vein of human subjects. Peripheral blood mononuclear cells (PBMC) were prepared by layering 10 ml anti-coagulated blood over 5 ml lymphoprep in a 15 ml conical tube and centrifugation for 20 minutes at 400×g in a swinging bucket rotor. The lymphocyte layer was removed, washed twice in tissue culture media (RPMI containing 10% fetal bovine serum) prior to re-suspension in the same media at 2×10^6 cells/ml. 100 μl aliquots of PMBCs were incubated for 1 h at 37° C. with various concentrations of JAK inhibitors prior to stimulation for 15 minutes with 1.5 ng/ml of IL2 or IL4. The reaction was terminated by the addition of 60 μl 16% paraformaldehyde, followed by incubation at room temperature for 10 minutes. Fixed cells were washed twice in PBS, and then re-suspended in −20° C. 50% methanol diluted in PBS and stored at 4° C. overnight. Following permeabilization of the cell membrane in methanol, cells were washed twice in PBS containing 1% BSA and PBMCs were re-suspended in the same buffer containing CD3 and STAT5 Y694 specific antibodies (IL2 stimulations) or CD3, CD14, CD19, and STAT6 Y641 specific antibodies (IL4 stimulations) for 1 hour at room temperature. Cells were then washed and re-suspended in PBS/BSA buffer and assessed by flow cytometry (LSRII; BD Biosciences) for effect of JAK inhibitors on cytokine mediated STAT phosphorylation.
as §2

A further test concerns the target JAK1 (Homo sapiens (Human), UniProt P23458). As to the kind of experiment: Purified kinase assay (Z'-LYTE), JAK1. The class given is biochemical. The essentials:
as §1

Chain of TYK2 (P29597 897-1176): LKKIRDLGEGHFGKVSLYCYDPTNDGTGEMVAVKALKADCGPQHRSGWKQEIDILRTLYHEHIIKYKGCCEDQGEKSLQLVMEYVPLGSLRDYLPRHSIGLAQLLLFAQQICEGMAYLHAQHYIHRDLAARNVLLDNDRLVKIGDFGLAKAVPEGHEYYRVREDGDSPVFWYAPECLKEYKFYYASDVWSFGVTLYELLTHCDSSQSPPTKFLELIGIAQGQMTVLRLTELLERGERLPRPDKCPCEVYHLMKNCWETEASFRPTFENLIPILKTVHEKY
Chain of JAK1 (P23458 875-1153): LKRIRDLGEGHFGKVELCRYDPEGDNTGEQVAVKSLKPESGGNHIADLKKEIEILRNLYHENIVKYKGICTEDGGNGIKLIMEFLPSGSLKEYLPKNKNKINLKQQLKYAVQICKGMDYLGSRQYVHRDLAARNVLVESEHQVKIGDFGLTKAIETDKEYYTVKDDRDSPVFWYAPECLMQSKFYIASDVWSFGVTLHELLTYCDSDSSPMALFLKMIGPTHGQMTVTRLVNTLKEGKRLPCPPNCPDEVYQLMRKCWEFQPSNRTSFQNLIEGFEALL
Chain of JAK2 (O60674 849-1124): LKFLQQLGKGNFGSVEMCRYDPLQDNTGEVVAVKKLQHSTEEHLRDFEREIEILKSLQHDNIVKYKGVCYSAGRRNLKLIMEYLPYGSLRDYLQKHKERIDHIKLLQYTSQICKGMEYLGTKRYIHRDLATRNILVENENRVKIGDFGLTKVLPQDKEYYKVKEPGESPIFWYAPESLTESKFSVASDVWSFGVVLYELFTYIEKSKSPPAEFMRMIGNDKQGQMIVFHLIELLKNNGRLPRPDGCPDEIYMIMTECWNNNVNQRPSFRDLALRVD
Chain of JAK3 (P52333 822-1111): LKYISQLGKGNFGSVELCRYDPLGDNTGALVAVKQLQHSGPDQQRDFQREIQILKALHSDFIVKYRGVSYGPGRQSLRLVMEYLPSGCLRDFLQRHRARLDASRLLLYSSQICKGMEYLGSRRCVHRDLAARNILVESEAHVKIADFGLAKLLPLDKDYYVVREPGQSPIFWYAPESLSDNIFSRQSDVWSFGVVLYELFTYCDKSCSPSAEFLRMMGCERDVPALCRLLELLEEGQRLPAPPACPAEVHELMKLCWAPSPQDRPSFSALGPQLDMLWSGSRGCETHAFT

Consider `CCC(=O)N1CCN(c2ccc(Nc3cc(NCc4c(F)cccc4F)c(C(N)=O)nn3)cc2)CC1` [Compound 33], for which the IC50 lay within 1 to 10 nM at JAK3 (Table 1, read-out: JAK3 IC50); 1 to 10 nM at JAK3 (Table 2, read-out: JAK3); 10 to 100 nM on JAK2 (Table 1, read-out: JAK2 IC50); 10 to 100 nM on JAK2 (Table 2, read-out: JAK2); 10 to 100 nM at TYK2 (Table 1, read-out: Tyk2 IC50); 10 to 100 nM on TYK2 (Table 2, read-out: TYK2). Besides, the IC50 at JAK1 (Table 1, read-out: JAK1 IC50) fell in the range of 100 to 1000 nM; at JAK1 (Table 2, read-out: JAK1) it was 100 to 1000 nM. Also, the inhibition at 0.1 µM in test [1] worked out at 0%. In addition, the inhibition at 1 µM in test [1] was determined as 17%; in test [2], 53%. In test [2], the inhibition at 0.2 µM worked out at 31%.

With `CC(=O)N1CCN(c2ccc(Nc3cc(NCc4cc(F)cc(F)c4)c(C(N)=O)nn3)cc2)CC1` [Compound 20], the IC50 on JAK3 (Table 1, read-out: JAK3 IC50) lay in the range of 1 to 10 nM; on JAK3 (Table 2, read-out: JAK3), 1 to 10 nM; on JAK2 (Table 1, read-out: JAK2 IC50), 10 to 100 nM; on JAK2 (Table 2, read-out: JAK2), 100 to 1000 nM; at TYK2 (Table 1, read-out: Tyk2 IC50), 100 to 1000 nM; at TYK2 (Table 2, read-out: TYK2) it was 100 to 1000 nM. The IC50 is 100 to 1000 nM at JAK1 (Table 1, read-out: JAK1 IC50) and > 1000 nM at JAK1 (Table 2, read-out: JAK1). Further, the inhibition at 0.1 µM in test [1] worked out at 3%. Further, the inhibition at 1 µM is 2% in test [1] and 60% in test [2]. The inhibition at 0.2 µM in test [2] is 32%.
